#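 These data come from cells grown in 96-well plates and exposed to compound for 48 hours at five concentrations. Here, GI50 denotes the concentration required for 50% inhibition of growth.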 Calls of active or inactive are those of the source. No stated cut-off is given here; in the data, active = GI50 up to about 1.1 µM and inactive = higher.
# Assays:
# Test in all cases: NCI-60 cell line screen, 48 h
# 786-0 = tested on: 786-0
# A498 = tested on: A498
# A549 = tested on: A549
# ACHN = tested on: ACHN
# BT-549 = tested on: BT-549
# CAKI-1 = tested on: CAKI-1
# CCRF-CEM = tested on: CCRF-CEM
# COLO 205 = tested on: COLO 205
# DU-145 = tested on: DU-145
# EKVX = tested on: EKVX
# HCC 2998 = tested on: HCC 2998
# HCT-116 = tested on: HCT-116
# HCT-15 = tested on: HCT-15
# HL-60 = tested on: HL-60
# HOP-92 = tested on: HOP-92
# HT-29 = tested on: HT-29
# Hs-578T = tested on: Hs-578T
# IGROV-1 = tested on: IGROV-1
# K562 = tested on: K562
# KM12 = tested on: KM12
# LOX IMVI = tested on: LOX IMVI
# M14 = tested on: M14
# MCF7 = tested on: MCF7
# MDA-MB-231 = tested on: MDA-MB-231
# MDA-MB-435 = tested on: MDA-MB-435
# MOLT-4 = tested on: MOLT-4
# Malme-3M = tested on: Malme-3M
# NCI-H226 = tested on: NCI-H226
# NCI-H23 = tested on: NCI-H23
# NCI-H460 = tested on: NCI-H460
# NCI-H522 = tested on: NCI-H522
# NCI/ADR-RES = tested on: NCI/ADR-RES
# OVCAR-3 = tested on: OVCAR-3
# OVCAR-4 = tested on: OVCAR-4
# OVCAR-5 = tested on: OVCAR-5
# OVCAR-8 = tested on: OVCAR-8
# PC-3 = tested on: PC-3
# RPMI-8226 = tested on: RPMI-8226
# RXF 393 = tested on: RXF 393
# SF-268 = tested on: SF-268
# SF-295 = tested on: SF-295
# SF-539 = tested on: SF-539
# SK-MEL-28 = tested on: SK-MEL-28
# SK-MEL-2 = tested on: SK-MEL-2
# SK-MEL-5 = tested on: SK-MEL-5
# SK-OV-3 = tested on: SK-OV-3
# SN12C = tested on: SN12C
# SNB-19 = tested on: SNB-19
# SNB-75 = tested on: SNB-75
# SR = tested on: SR
# SW-620 = tested on: SW-620
# T47D = tested on: T47D
# U-251 = tested on: U-251
# UACC-257 = tested on: UACC-257
# UACC-62 = tested on: UACC-62
# UO-31 = tested on: UO-31
smiles,measurement,setting,value
O=C(C[n+]1ccccc1)N/N=C(\Cc1nc2ccc([N+](=O)[O-])cc2nc1O)C(=O)Nc1cc(Cl)c(Cl)cc1Cl,GI50,786-0,> 100 µM (inactive)
same,GI50,A498,> 100 µM (inactive)
same,GI50,A549,> 100 µM (inactive)
same,GI50,ACHN,> 100 µM (inactive)
same,GI50,BT-549,> 100 µM (inactive)
same,GI50,CAKI-1,65.6 µM (inactive)
same,GI50,CCRF-CEM,> 100 µM (inactive)
same,GI50,COLO 205,76.2 µM (inactive)
same,GI50,DU-145,> 100 µM (inactive)
same,GI50,EKVX,> 100 µM (inactive)
same,GI50,HCC 2998,59 µM (inactive)
same,GI50,HCT-116,> 100 µM (inactive)
same,GI50,HCT-15,> 100 µM
same,GI50,HL-60,> 100 µM (inactive)
same,GI50,HOP-92,> 100 µM (inactive)
same,GI50,HT-29,> 100 µM (inactive)
same,GI50,Hs-578T,> 100 µM (inactive)
same,GI50,IGROV-1,> 100 µM (inactive)
same,GI50,K562,> 100 µM (inactive)
same,GI50,KM12,60.3 µM (inactive)
same,GI50,LOX IMVI,60.1 µM (inactive)
same,GI50,M14,> 100 µM (inactive)
same,GI50,MCF7,67.3 µM (inactive)
same,GI50,MDA-MB-231,41.9 µM (inactive)
same,GI50,MDA-MB-435,> 100 µM (inactive)
same,GI50,MOLT-4,> 100 µM (inactive)
same,GI50,Malme-3M,> 100 µM (inactive)
same,GI50,NCI-H226,50.5 µM (inactive)
same,GI50,NCI-H23,> 100 µM (inactive)
same,GI50,NCI-H460,87.9 µM (inactive)
same,GI50,NCI-H522,61.8 µM (inactive)
same,GI50,NCI/ADR-RES,60.1 µM (inactive)
same,GI50,OVCAR-3,76 µM (inactive)
same,GI50,OVCAR-4,79.4 µM (inactive)
same,GI50,OVCAR-5,> 100 µM (inactive)
same,GI50,OVCAR-8,> 100 µM (inactive)
same,GI50,PC-3,> 100 µM (inactive)
same,GI50,RPMI-8226,> 100 µM (inactive)
same,GI50,RXF 393,> 100 µM (inactive)
same,GI50,SF-268,> 100 µM (inactive)
same,GI50,SF-295,> 100 µM (inactive)
same,GI50,SF-539,> 100 µM (inactive)
same,GI50,SK-MEL-28,> 100 µM (inactive)
same,GI50,SK-MEL-2,> 100 µM (inactive)
same,GI50,SK-MEL-5,95.1 µM (inactive)
same,GI50,SK-OV-3,> 100 µM (inactive)
same,GI50,SN12C,> 100 µM (inactive)
same,GI50,SNB-19,> 100 µM (inactive)
same,GI50,SNB-75,19.4 µM (inactive)
same,GI50,SR,> 100 µM (inactive)
same,GI50,SW-620,> 100 µM (inactive)
same,GI50,T47D,68.7 µM (inactive)
same,GI50,U-251,> 100 µM (inactive)
same,GI50,UACC-257,> 100 µM (inactive)
same,GI50,UACC-62,> 100 µM (inactive)
same,GI50,UO-31,50.4 µM (inactive)
